Molecules are shown by their SMILES.

The test system of data set [1] is nascent protein synthesis. Type of data set: cell-based, human. The conditions noted are these: 220 nM. Here is the method:
To monitor HIV-1 gene expression or replication, Gag release into cell culture supernatants were assayed by ELISA using a p24^CA antigen capture assay kit (AIDS & Cancer Virus Program, NCI-Frederick, Frederick, MD USA). Media harvested from HIV clinical isolates were diluted ~10 fold (or as necessary) prior to performing this assay. For analysis of HIV-1 and SR protein expression (and phosphorylation states with calf intestinal alkaline phosphatase treatments), cells were lysed and analyzed by western blot as previously outlined. Phosphatase inhibitors (e.g. 10 mM sodium fluoride, 2 mM sodium orthovanadate) were added to solutions requiring phospho protein analyses. […] Activation of MAPKs was determined by western blot quantitation and calculation of phospho/total protein levels. […] Stain-Free™ gels were casted and proteins were detected as described in 10% TGX-Stain-Free FastCast Acrylamide Kit from Bio-Rad (#161-0183). […] In representative gel/blot sets, samples were electrophoresed from the same experiment as controls, resolved simultaneously on identically cast gel(s), transferred to same PVDF (by either wet electrophoretic or by Bio-Rad Trans-Blot® Turbo Transfer System), and detected at same time. […] Cells were subsequently washed, whole cell lysates prepared, and proteins quantified by western blot using an anti-puromycin antibody (EMD Millipore, #anti-12D10) as described above. […]

Data set [2] has as its system HIV-1 (Gag) gene expression. The conditions noted are these: HeLa rtTA-HIV-ΔMls cells; read-out: IC90, HIV-1 (Gag) gene expression (digoxin, published); cited from earlier work.

Take `COc1ccc(C[C@H]2NC[C@H](O)[C@H]2OC(C)=O)cc1` [anisomycin, Anisomycin]: the “effect on nascent protein synthesis” value in data set [1] is on record as “little to no effect”.
Take `C[C@H]1O[C@@H](O[C@H]2[C@@H](O)C[C@H](O[C@H]3[C@@H](O)C[C@H](O[C@H]4CC[C@@]5(C)[C@H](CC[C@@H]6[C@@H]5C[C@@H](O)[C@]5(C)[C@@H](C7=CC(=O)OC7)CC[C@]65O)C4)O[C@@H]3C)O[C@@H]2C)C[C@H](O)[C@@H]1O` [Digoxin]: in data set [2], the IC90 is 100 nM.

A word on the IC90: it is the point of the concentration-response curve where the effect stands at 90%.

Values taken from PMC5770468, “Cardiac glycoside/aglycones inhibit HIV-1 gene expression by a mechanism requiring MEK1/2-ERK1/2 signaling” (Scientific Reports, 2018).
